PubChem BioAssay (NCI)
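Assay format: 96-well plates, 48-hour exposure. TGI marks complete inhibition of growth.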

Assays:
Test in all cases: NCI tumour cell line growth inhibition, 48 h
IGROV1 ovarian = system: IGROV1 ovarian
SK-MEL-28 melanoma = system: SK-MEL-28 melanoma
HL-60(TB) leukemia = system: HL-60(TB) leukemia
MOLT-4 leukemia = system: MOLT-4 leukemia
HCT-116 colon = system: HCT-116 colon
UO-31 renal = system: UO-31 renal
KM12 colon = system: KM12 colon
PC-3 prostate = system: PC-3 prostate
M14 melanoma = system: M14 melanoma
OVCAR-4 ovarian = system: OVCAR-4 ovarian
NCI-H460 lung = system: NCI-H460 lung
COLO 205 colon = system: COLO 205 colon
EKVX NSCLC = system: EKVX NSCLC
SK-MEL-5 melanoma = system: SK-MEL-5 melanoma
OVCAR-5 ovarian = system: OVCAR-5 ovarian
SF-539 CNS = system: SF-539 CNS
SF-268 CNS = system: SF-268 CNS
CCRF-CEM leukemia = system: CCRF-CEM leukemia
SK-OV-3 ovarian = system: SK-OV-3 ovarian
OVCAR-8 ovarian = system: OVCAR-8 ovarian
A549 NSCLC = system: A549 NSCLC
HOP-62 NSCLC = system: HOP-62 NSCLC
SNB-19 CNS = system: SNB-19 CNS
NCI-H226 lung = system: NCI-H226 lung
A498 renal = system: A498 renal
RXF 393 renal = system: RXF 393 renal
LOX IMVI melanoma = system: LOX IMVI melanoma
CAKI-1 renal = system: CAKI-1 renal
OVCAR-3 ovarian = system: OVCAR-3 ovarian
UACC-62 melanoma = system: UACC-62 melanoma
786-0 renal = system: 786-0 renal
MDA-MB-435 = system: MDA-MB-435
SF-295 CNS = system: SF-295 CNS
ACHN renal = system: ACHN renal
HT29 colon = system: HT29 colon
SR leukemia = system: SR leukemia
HCC-2998 colon = system: HCC-2998 colon
U251 CNS = system: U251 CNS
UACC-257 melanoma = system: UACC-257 melanoma
T-47D breast = system: T-47D breast
MDA-N = system: MDA-N
HS 578T breast = system: HS 578T breast
SN12C renal = system: SN12C renal
MDA-MB-231 breast = system: MDA-MB-231 breast
TK-10 renal = system: TK-10 renal
HCT-15 colon = system: HCT-15 colon
MCF7 breast = system: MCF7 breast
BT-549 breast = system: BT-549 breast
HOP-92 NSCLC = system: HOP-92 NSCLC
NCI-H23 lung = system: NCI-H23 lung
K-562 leukemia = system: K-562 leukemia
SK-MEL-2 melanoma = system: SK-MEL-2 melanoma
DU-145 prostate = system: DU-145 prostate
RPMI-8226 leukemia = system: RPMI-8226 leukemia
NCI/ADR-RES ovarian = system: NCI/ADR-RES ovarian
SNB-75 CNS = system: SNB-75 CNS
NCI-H522 lung = system: NCI-H522 lung
MALME-3M melanoma = system: MALME-3M melanoma
SW-620 colon = system: SW-620 colon

For `CCOC(=O)c1c(C)n([O-])c2cc(Cl)c(Cl)cc2[n+]1=O`, the TGI (IGROV1 ovarian) was 24.1 µM, the TGI (SK-MEL-28 melanoma) was > 100 µM and the TGI (HL-60(TB) leukemia) was 24.6 µM. For the same compound, the TGI (MOLT-4 leukemia) was 42.8 µM, the TGI (HCT-116 colon) was 46.3 µM and the TGI (UO-31 renal) was 67.1 µM. For the same compound, the TGI (KM12 colon) was 27.5 µM, the TGI (PC-3 prostate) was > 100 µM and the TGI (M14 melanoma) was 43.9 µM. The TGI (OVCAR-4 ovarian) was 33.9 µM, the TGI (NCI-H460 lung) was 40.7 µM and the TGI (COLO 205 colon) was 39 µM. For the same compound, the TGI (EKVX NSCLC) was 74.4 µM, the TGI (SK-MEL-5 melanoma) was 36.5 µM and the TGI (OVCAR-5 ovarian) was > 100 µM. The TGI (SF-539 CNS) was > 100 µM, the TGI (SF-268 CNS) was 76 µM and the TGI (CCRF-CEM leukemia) was 45.9 µM. The TGI (SK-OV-3 ovarian) was 85.9 µM, the TGI (OVCAR-8 ovarian) was 53 µM and the TGI (A549 NSCLC) was 35.6 µM. The TGI (HOP-62 NSCLC) was 57.8 µM, the TGI (SNB-19 CNS) was > 100 µM and the TGI (NCI-H226 lung) was 33.5 µM. It also gave a TGI (A498 renal) of 58 µM, a TGI (RXF 393 renal) of 50.3 µM and a TGI (LOX IMVI melanoma) of 38.4 µM. It also gave a TGI (CAKI-1 renal) of 53 µM, a TGI (OVCAR-3 ovarian) of 37.1 µM and a TGI (UACC-62 melanoma) of 32.5 µM. The TGI (786-0 renal) was 84.5 µM, the TGI (MDA-MB-435) was 55.1 µM and the TGI (SF-295 CNS) was > 100 µM. For the same compound, the TGI (ACHN renal) was > 100 µM, the TGI (HT29 colon) was > 100 µM and the TGI (SR leukemia) was 25.8 µM. For the same compound, the TGI (HCC-2998 colon) was 29.1 µM, the TGI (U251 CNS) was > 100 µM and the TGI (UACC-257 melanoma) was 44.5 µM. For the same compound, the TGI (T-47D breast) was 60.1 µM, the TGI (MDA-N) was > 100 µM and the TGI (HS 578T breast) was 58.3 µM. It also gave a TGI (SN12C renal) of 51.9 µM, a TGI (MDA-MB-231 breast) of 51.3 µM and a TGI (TK-10 renal) of 54.8 µM. For the same compound, the TGI (HCT-15 colon) was 37.2 µM, the TGI (MCF7 breast) was > 100 µM and the TGI (BT-549 breast) was 75.9 µM. The TGI (HOP-92 NSCLC) was 33.2 µM, the TGI (NCI-H23 lung) was 26.6 µM and the TGI (K-562 leukemia) was > 100 µM. The TGI (SK-MEL-2 melanoma) was 52 µM, the TGI (DU-145 prostate) was 30.8 µM and the TGI (RPMI-8226 leukemia) was 34.9 µM. For the same compound, the TGI (NCI/ADR-RES ovarian) was 66.6 µM.

`O=C1c2ccccc2C(=O)c2c(Nc3cc4c5c(ccc6c7ccc8c9c(cc(Nc%10cccc%11c%10C(=O)c%10ccccc%10C%11=O)c(c3c56)c97)-c3ccccc3C8=O)C(=O)c3ccccc3-4)cccc21` was tested, and the TGI (IGROV1 ovarian) was > 100 µM, the TGI (SK-MEL-28 melanoma) was > 100 µM and the TGI (MOLT-4 leukemia) was > 100 µM. The TGI (HCT-116 colon) was > 100 µM, the TGI (UO-31 renal) was > 100 µM and the TGI (KM12 colon) was > 100 µM. For the same compound, the TGI (PC-3 prostate) was > 100 µM, the TGI (M14 melanoma) was > 100 µM and the TGI (OVCAR-4 ovarian) was > 100 µM. The TGI (SNB-75 CNS) was 41.5 µM, the TGI (COLO 205 colon) was > 100 µM and the TGI (EKVX NSCLC) was > 100 µM. For the same compound, the TGI (SK-MEL-5 melanoma) was > 100 µM, the TGI (OVCAR-5 ovarian) was > 100 µM and the TGI (SF-268 CNS) was 75.2 µM. The TGI (SK-OV-3 ovarian) was 51.1 µM, the TGI (OVCAR-8 ovarian) was > 100 µM and the TGI (NCI-H522 lung) was > 100 µM. For the same compound, the TGI (A549 NSCLC) was > 100 µM, the TGI (HOP-62 NSCLC) was 44.6 µM and the TGI (SNB-19 CNS) was > 100 µM. For the same compound, the TGI (NCI-H226 lung) was > 100 µM, the TGI (A498 renal) was 65.1 µM and the TGI (RXF 393 renal) was > 100 µM. The TGI (LOX IMVI melanoma) was > 100 µM, the TGI (CAKI-1 renal) was > 100 µM and the TGI (OVCAR-3 ovarian) was > 100 µM. The TGI (UACC-62 melanoma) was > 100 µM, the TGI (786-0 renal) was > 100 µM and the TGI (MDA-MB-435) was > 100 µM. For the same compound, the TGI (SF-295 CNS) was > 100 µM, the TGI (ACHN renal) was > 100 µM and the TGI (HT29 colon) was > 100 µM. The TGI (SR leukemia) was > 100 µM, the TGI (U251 CNS) was 55 µM and the TGI (UACC-257 melanoma) was > 100 µM. For the same compound, the TGI (T-47D breast) was > 100 µM, the TGI (MDA-N) was > 100 µM and the TGI (HS 578T breast) was 61.1 µM. The TGI (SN12C renal) was > 100 µM, the TGI (MDA-MB-231 breast) was > 100 µM and the TGI (TK-10 renal) was 96.1 µM. For the same compound, the TGI (HCT-15 colon) was > 100 µM, the TGI (MCF7 breast) was > 100 µM and the TGI (MALME-3M melanoma) was > 100 µM. For the same compound, the TGI (BT-549 breast) was > 100 µM, the TGI (HOP-92 NSCLC) was > 100 µM and the TGI (NCI-H23 lung) was > 100 µM. For the same compound, the TGI (SW-620 colon) was > 100 µM, the TGI (K-562 leukemia) was > 100 µM and the TGI (SK-MEL-2 melanoma) was > 100 µM. The TGI (DU-145 prostate) was > 100 µM, the TGI (RPMI-8226 leukemia) was > 100 µM and the TGI (NCI/ADR-RES ovarian) was > 100 µM.

In the case of `CC(=O)c1ccc2c(c1)CC1(C2)Cc2ccc3c(c2C1=O)CCC3` (stereo unspecified), the TGI (IGROV1 ovarian) is reported as > 100 µM, the TGI (SK-MEL-28 melanoma) is reported as 56.5 µM and the TGI (HL-60(TB) leukemia) is reported as 48.3 µM. The TGI (MOLT-4 leukemia) was > 100 µM, the TGI (HCT-116 colon) was > 100 µM and the TGI (UO-31 renal) was > 100 µM. For the same compound, the TGI (KM12 colon) was > 100 µM, the TGI (PC-3 prostate) was > 100 µM and the TGI (M14 melanoma) was 64.8 µM. For the same compound, the TGI (OVCAR-4 ovarian) was > 100 µM, the TGI (SNB-75 CNS) was 91.3 µM and the TGI (NCI-H460 lung) was > 100 µM. The TGI (COLO 205 colon) was 39.9 µM, the TGI (SK-MEL-5 melanoma) was 28.4 µM and the TGI (OVCAR-5 ovarian) was > 100 µM. The TGI (SF-539 CNS) was > 100 µM, the TGI (SF-268 CNS) was > 100 µM and the TGI (CCRF-CEM leukemia) was > 100 µM. The TGI (SK-OV-3 ovarian) was > 100 µM, the TGI (NCI-H522 lung) was 54.6 µM and the TGI (A549 NSCLC) was > 100 µM. The TGI (HOP-62 NSCLC) was > 100 µM, the TGI (SNB-19 CNS) was > 100 µM and the TGI (NCI-H226 lung) was > 100 µM. The TGI (A498 renal) was > 100 µM, the TGI (RXF 393 renal) was 97 µM and the TGI (LOX IMVI melanoma) was > 100 µM. For the same compound, the TGI (CAKI-1 renal) was > 100 µM, the TGI (OVCAR-3 ovarian) was > 100 µM and the TGI (UACC-62 melanoma) was 74.7 µM. The TGI (786-0 renal) was 40.8 µM, the TGI (MDA-MB-435) was 45.3 µM and the TGI (SF-295 CNS) was > 100 µM. For the same compound, the TGI (ACHN renal) was > 100 µM, the TGI (HT29 colon) was 31.6 µM and the TGI (SR leukemia) was > 100 µM. The TGI (HCC-2998 colon) was 37.8 µM, the TGI (U251 CNS) was > 100 µM and the TGI (UACC-257 melanoma) was 38.2 µM. For the same compound, the TGI (T-47D breast) was 94.5 µM, the TGI (MDA-N) was 94.6 µM and the TGI (HS 578T breast) was > 100 µM. For the same compound, the TGI (SN12C renal) was > 100 µM, the TGI (MDA-MB-231 breast) was > 100 µM and the TGI (TK-10 renal) was 64.2 µM. The TGI (HCT-15 colon) was > 100 µM, the TGI (MCF7 breast) was 72 µM and the TGI (MALME-3M melanoma) was 57 µM. For the same compound, the TGI (BT-549 breast) was > 100 µM, the TGI (HOP-92 NSCLC) was 41.2 µM and the TGI (NCI-H23 lung) was > 100 µM. For the same compound, the TGI (SW-620 colon) was > 100 µM, the TGI (K-562 leukemia) was > 100 µM and the TGI (SK-MEL-2 melanoma) was 35.5 µM. The TGI (DU-145 prostate) was > 100 µM, the TGI (RPMI-8226 leukemia) was > 100 µM and the TGI (NCI/ADR-RES ovarian) was 71.9 µM.
